Molecular target: T1, UGT1A7*9 (Homo sapiens, UniProt Q9HAW7, G115S/N129K/R131K)
T1 construct: expressed in transfected cells
T1 sequence (Q9HAW7 26-530 G115S/N129K/R131K): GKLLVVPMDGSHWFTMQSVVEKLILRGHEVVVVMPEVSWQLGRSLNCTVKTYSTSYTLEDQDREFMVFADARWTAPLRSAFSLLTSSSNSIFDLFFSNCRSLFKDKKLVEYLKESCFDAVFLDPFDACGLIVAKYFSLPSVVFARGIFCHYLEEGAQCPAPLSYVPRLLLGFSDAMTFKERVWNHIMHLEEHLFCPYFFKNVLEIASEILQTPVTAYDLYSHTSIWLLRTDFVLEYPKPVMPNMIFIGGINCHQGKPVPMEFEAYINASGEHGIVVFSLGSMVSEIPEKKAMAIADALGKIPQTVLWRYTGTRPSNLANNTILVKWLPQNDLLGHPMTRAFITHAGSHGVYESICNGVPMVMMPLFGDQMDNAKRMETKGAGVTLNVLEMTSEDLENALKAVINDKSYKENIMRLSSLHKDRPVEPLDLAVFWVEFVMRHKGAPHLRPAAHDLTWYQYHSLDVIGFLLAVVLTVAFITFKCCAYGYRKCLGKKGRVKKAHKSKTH
Experiment: SN-38 glucuronidation by microsomes of HEK293 cells expressing UGT1A7*9
Format: in vitro ADME
Set-up: key to Function (SN-38G formation versus *1 allele): High: no significant difference in activity compared to *1 allele.; Low: significantly lower SN-38G formation versus *1 allele
Experimental: Western blot analyses of UGT1A7 and UGT1A9 variants expressed in HEK293 cells were performed on microsomal proteins (10 μg) separated on a 10% SDS-polyacrylamide gel. After transferring the proteins, the membranes were probed with an anti-UGT1A RC-71 polyclonal antibody and with an anti-calnexin antibody. The relative levels of UGT1A9 (a) and UGT1A7 proteins (b) were determined by semi-quantitative densitometric analysis of the Enhanced chemiluminescence (ECL) image. The in vitro SN-38 activity was assessed using microsomal fractions prepared from HEK293 cells expressing the *1 and variant UGT1A9 (c) and UGT1A7 (d) alleles and incubated with 5 μM of SN-38 as described in Materials and Methods.
For the determination of Vmax and Km.

Structure (SMILES): CCc1c2c(nc3ccc(O)cc13)-c1cc3c(c(=O)n1C2)COC(=O)[C@]3(O)CC [SN-38, 7-ethyl-10-hydroxycamptothecin]
- SN-38 glucuronidating activity of the allele (in words): highest and low
- Function (SN-38G formation versus *1 allele) (in vitro experiments): Low
